Earlier results on one molecule are cited in article PMC9847679, “The anti-breast cancer stem cell properties of gold(I)-non-steroidal anti-inflammatory drug complexes” (Chemical Science, 2022).

As a reminder, the IC50 is the concentration needed to halve the response being measured.

Parameters in all cases: method as in PMID 26806362, PMID 31209956, PMID 28932846
One series deals with HMLER cells. Particulars: cited from earlier work.
A further series deals with HMLER-shEcad cells. Conditions: cited from earlier work.
The subject of series [1] is HMLER-shEcad mammospheres. Particulars: read-out: Mammosphere IC50; cited from earlier work.

In the case of `N.N.[Cl][Pt][Cl]` [Cisplatin, cisplatin], the IC50 in the series with HMLER cells is 2.565 ± 0.021 µM; with HMLER-shEcad cells, 5.65 ± 0.304 µM; in series [1] it was 14 ± 2 µM.
